Assay results: patent US9932621B2, “Modulators for Sirt5 and assays for screening same” (CORNELL UNIVERSITY, priority 2010, dated 2018)
Entries after “also recorded” stand apart in the source; their conditions may differ. *1 amine or outer side, *2 acyl side, *3 side chain or, on linkers, in order; H or OH if unused. Where no end group is shown, it is not given here. The star is where a group is joined. AMC = Cc1cc(=O)oc2cc(N*)ccc12; Suc = O=C(CCC(=O)[*:2])[*:1]

How the values were obtained:
Assay type in all cases: biochemical
Sirt2 [1] = target: T1, Sirt2 (Homo sapiens, UniProt Q8IXJ6); assay: Sirt2 inhibition IC50
T1 construct: made in house
T1 sequence (Q8IXJ6 1-389): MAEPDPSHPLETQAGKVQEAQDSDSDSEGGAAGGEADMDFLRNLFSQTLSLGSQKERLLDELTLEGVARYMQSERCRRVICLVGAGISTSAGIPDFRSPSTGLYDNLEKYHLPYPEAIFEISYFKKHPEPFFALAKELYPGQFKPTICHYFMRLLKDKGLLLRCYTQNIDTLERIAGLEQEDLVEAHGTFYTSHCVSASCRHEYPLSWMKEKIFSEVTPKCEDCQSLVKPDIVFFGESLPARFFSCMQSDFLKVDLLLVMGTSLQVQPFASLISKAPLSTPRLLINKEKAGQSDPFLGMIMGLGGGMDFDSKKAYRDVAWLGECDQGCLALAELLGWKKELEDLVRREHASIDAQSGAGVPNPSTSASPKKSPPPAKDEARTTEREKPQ
Procedure: (§1) All assays were carried out under identical enzyme (1 μM) and substrate (0.3 mM acyl peptide, 0.5 mM NAD) concentrations.

Sirt3 = target: T2, Sirt3 (Homo sapiens, UniProt Q9NTG7); assay: Sirt3 inhibition IC50
T2 construct: made in house
T2 sequence (Q9NTG7 1-399): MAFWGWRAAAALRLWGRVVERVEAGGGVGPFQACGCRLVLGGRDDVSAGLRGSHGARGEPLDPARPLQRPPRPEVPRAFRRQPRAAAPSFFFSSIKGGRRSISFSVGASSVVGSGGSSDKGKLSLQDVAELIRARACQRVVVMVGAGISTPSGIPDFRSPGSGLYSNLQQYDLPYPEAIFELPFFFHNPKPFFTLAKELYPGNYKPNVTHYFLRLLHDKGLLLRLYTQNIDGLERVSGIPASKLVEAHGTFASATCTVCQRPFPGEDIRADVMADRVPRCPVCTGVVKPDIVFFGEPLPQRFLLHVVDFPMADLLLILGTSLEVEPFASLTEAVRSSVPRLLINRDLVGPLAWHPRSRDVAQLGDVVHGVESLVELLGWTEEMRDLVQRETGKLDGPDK
Procedure: as §1

Sirt5 [2] = target: T3, Sirt5 (Homo sapiens, UniProt Q9NXA8); assay: Sirt5 inhibition IC50 (desuccinylase, HPLC-based assay); settings: Sirt5 1 μM, 0.3 mM acyl peptide, 0.5 mM NAD; * = no inhibition at 100 μM
T3 construct: made in house
T3 sequence (Q9NXA8 37-310): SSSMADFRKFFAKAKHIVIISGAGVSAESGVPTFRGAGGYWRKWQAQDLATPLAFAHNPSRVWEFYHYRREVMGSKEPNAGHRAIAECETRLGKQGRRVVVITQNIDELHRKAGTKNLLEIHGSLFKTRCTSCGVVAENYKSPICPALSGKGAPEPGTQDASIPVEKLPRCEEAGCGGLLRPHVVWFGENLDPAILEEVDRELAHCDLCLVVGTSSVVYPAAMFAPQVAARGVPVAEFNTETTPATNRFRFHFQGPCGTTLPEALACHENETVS
Procedure: as §1

Sirt5 [3] = target: T3, Sirt5; assay: Screening for Sirt5 inhibitors with ISGASE(SuK)-AMC in the fluorogenic assay; settings: compound 30 μM, ISGASE(SuK)-AMC 0.3 mM, Sirt5 1 μM, FIG. 13
Procedure: SirT5 (1 μM) was incubated with ISGASE(SuK)-AMC (SEQ ID NO:11) peptide (0.3 mM), NAD (0.5 mM) in Tris-HCl buffer (pH 7.4, 20 mM) with DTT (1 mM) in 60 μL reactions for 4 hours at 37° C. Then trypsin (1 μg) and CaCl2 (1 mM) were added and the reactions were incubated for 3 hours at 37° C. The reactions were the diluted with 50 μL water. The mixture (100 μL) was transferred to 96 well plate and the fluorescence was recorded by BIO-TEK® Synergy HT plate reader (Optics Position: Top, Sensitivity: 50, Excitation at the wavelength of 360 nm and Emission at the wavelength of 460 nm).
The procedure was the same as described above (Assaying Sirt5 activity on ISGASE(SuK)-AMC in the fluorogenic assay), except that different compounds (30 μM) were included in the reactions. In the desuccinylation step, Sirt5 was added last to initiate the desuccinylation reaction.

Sirt2 [4] = target: T1, Sirt2; assay: Secondary screening using Sirt2 and ISGASE(AcK)-AMC fluorogenic assay; settings: inhibitor 30 μM, ISGASE(AcK)-AMC 0.3 mM, Sirt2 1 μM, FIG. 15
Procedure: SirT2 (1 μM) was incubated with ISGASE(AcK)-AMC (SEQ ID NO:13) peptide (0.3 mM), inhibitors (30 μM), NAD (0.5 mM) in Tris-HCl buffer (pH 7.4, 20 mM) containing dithiothreitol (DTT, 1 mM) in a 60 μL reaction for 4 hours at 37° C. Then trypsin (1 μg) and CaCl2 (1 mM) were added and the reaction were incubated for 3 hours at 37° C. The reactions were diluted with 50 μL water. The mixture (100 μL) was transferred to 96 well plate and the fluorescence was recorded by BIO-TEK® Synergy HT (Optics Position: Top, Sensitivity: 50, Excitation at the wavelength of 360 nm and Emission at the wavelength of 460 nm).

Sirt1 = target: T4, Sirt1 (Homo sapiens, UniProt Q96EB6); assay: Sirt1 inhibition IC50; design: made in house
T4 sequence (Q96EB6 1-747): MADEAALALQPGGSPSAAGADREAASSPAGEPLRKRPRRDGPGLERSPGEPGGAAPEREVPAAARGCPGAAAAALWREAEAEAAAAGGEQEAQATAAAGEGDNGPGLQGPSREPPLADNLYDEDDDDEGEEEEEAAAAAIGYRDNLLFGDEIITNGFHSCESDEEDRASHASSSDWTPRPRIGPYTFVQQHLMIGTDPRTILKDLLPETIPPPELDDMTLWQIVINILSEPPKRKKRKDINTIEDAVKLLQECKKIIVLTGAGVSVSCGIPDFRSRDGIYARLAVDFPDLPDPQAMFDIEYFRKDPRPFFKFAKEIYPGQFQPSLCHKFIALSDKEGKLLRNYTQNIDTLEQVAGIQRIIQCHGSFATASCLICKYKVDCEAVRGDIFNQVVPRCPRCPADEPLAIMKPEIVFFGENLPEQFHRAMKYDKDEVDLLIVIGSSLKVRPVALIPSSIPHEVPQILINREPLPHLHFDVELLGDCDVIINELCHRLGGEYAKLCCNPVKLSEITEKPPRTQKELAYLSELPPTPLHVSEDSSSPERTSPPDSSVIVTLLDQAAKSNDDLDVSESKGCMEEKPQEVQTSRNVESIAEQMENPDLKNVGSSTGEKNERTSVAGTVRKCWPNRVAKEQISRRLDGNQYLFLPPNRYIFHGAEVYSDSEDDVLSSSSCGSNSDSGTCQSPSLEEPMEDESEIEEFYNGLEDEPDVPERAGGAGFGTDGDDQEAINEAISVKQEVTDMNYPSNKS
Procedure: as §1

Sirt5 [5] = target: T3, Sirt5; assay: Sirt5 fluorogenic assay with KQTAR(SuK)-AMC; settings: reaction with Sirt5
Procedure: SirT5 (1 μM) was incubated with KQTAR(SuK)-AMC (SEQ ID NO: 10) peptide (0.3 mM), NAD (0.5 mM) in Tris-HCl buffer (pH 7.4, 20 mM) containing dithiothreitol (DTT, 1 mM) in a 60 μL reaction for 16 hours at 37° C. Then trypsin (1 μg) and CaCl2 (1 mM) were added and the reaction were incubated for 14 hours at 37° C. The reactions were diluted with 50 μL water. The mixture (100 μL) was transferred to 96 well plate and the fluorescence was recorded by BIO-TEK® Synergy HT plate reader (Optics Position: Top, Sensitivity: 50, Excitation at the wavelength of 360 nm and Emission at the wavelength of 460 nm).

Sirt5 [6] = target: T3, Sirt5; assay: Sirt5-catalyzed desuccinylation of AMC-succinyl peptides monitored by HPLC
Procedure: […] The reactions were stopped with 200 mM HCl and 320 mM acetic acid, analyzed by HPLC with a reverse phase C18 column (250×4.6 mm, 90 A, 10 μm, GraceVydac, Southborough, Mass.), with a linear gradient of 0% to 20% B for 10 min (1 mL/min).

| Compound | IC50 (Sirt2 [1]; Sirt2 1 μM, 0.3 mM acyl peptide, 0.5 mM NAD, * = no inhibition at 100 μM) [µM] | inhibition of Sirt2 (Sirt2 [1]; at 100 μM concentration) | IC50 (Sirt3; Sirt3 1 μM, 0.3 mM acyl peptide, 0.5 mM NAD, * = no inhibition at 100 μM) [µM] | inhibition of Sirt3 (Sirt3; at 100 μM concentration) | IC50 (Sirt5 [2]) [µM] | inhibition of Sirt5 (fluorescence) in fluorogenic assay (Sirt5 [3]) | fluorescence produced by Sirt2 in fluorogenic assay (Sirt2 [4]) | IC50 (Sirt1; Sirt1 1 μM, 0.3 mM acyl peptide, 0.5 mM NAD, * = no inhibition at 100 μM) [µM] | inhibition of Sirt1 (Sirt1; at 100 μM concentration) | fluorescence with Sirt5 (Sirt5 [5]) | hydrolysis by Sirt5 (Sirt5 [6]; 1 μM Sirt5, 3 hrs) [%] | hydrolysis by Sirt5 (Sirt5 [6]; 5 μM Sirt5, 3 hrs) [%] |
| --- | --- | --- | --- | --- | --- | --- | --- | --- | --- | --- | --- | --- |
| C[C@H](NC(=O)[C@H](CCCCN)NC(=O)CNC(=O)CNC(=O)[C@@H](NC(=O)[C@H](CO)NC(=O)[C@H](CCCCNC(=S)CCC(=O)O)NC(=O)[C@H](CCCNC(=N)N)NC(=O)[C@H](C)NC(=O)[C@@H](NC(=O)[C@H](CCC(N)=O)NC(=O)[C@@H](N)CCCCN)[C@@H](C)O)[C@@H](C)O)C(=O)O [H3K9 TSu, KQTAR(TSuK)STGGKA] | > 100 | did not inhibit | > 100 | did not inhibit | 5 | close to background level; also recorded: significant inhibition | did not significantly decrease the fluorescence | > 100 | did not inhibit |  |  |  |
| Cc1ccc(C(=O)Nc2ccc(S(=O)(=O)O)c3cc(S(=O)(=O)O)cc(S(=O)(=O)O)c23)cc1NC(=O)c1cccc(NC(=O)Nc2cccc(C(=O)Nc3cc(C(=O)Nc4ccc(S(=O)(=O)O)c5cc(S(=O)(=O)O)cc(S(=O)(=O)O)c45)ccc3C)c2)c1 [suramin] |  |  |  |  |  | close to background level; also recorded: significant inhibition | decreased the fluorescence to almost background level |  |  |  |  |  |
| KQTAR(SuK)-AMC (KQTARK(Suc)-{AMC}) |  |  |  |  |  |  |  |  |  | 3600 relative fluorescence unit | 10 | 60 |
